Test results published in ChEMBL document CHEMBL1201862, “PubChem BioAssay data set” (2004).
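Protocol summary: plate cells (96-well), add compound at 5 concentrations, incubate 48 h, interpolate endpoints linearly. Here, GI50 denotes the concentration required for 50% inhibition of growth.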 Calls of active or inactive are those of the source. Cut-off read from the data, not from the text of the source: active = GI50 up to about 1.1 µM and inactive = higher.

Columns and labels:
Assay in all cases: NCI anticancer screen, dose series, 48 h
T47D = system: T47D
MDA-MB-231 = system: MDA-MB-231
SF-268 = system: SF-268
NCI/ADR-RES = system: NCI/ADR-RES
SN12C = system: SN12C
M14 = system: M14
Malme-3M = system: Malme-3M
SNB-19 = system: SNB-19
NCI-H460 = system: NCI-H460
A549 = system: A549
SW-620 = system: SW-620
PC-3 = system: PC-3
HCT-116 = system: HCT-116
SR = system: SR
RXF 393 = system: RXF 393
HL-60 = system: HL-60
EKVX = system: EKVX
K562 = system: K562
SF-539 = system: SF-539
UACC-62 = system: UACC-62

| SMILES | GI50 (T47D) | GI50 (MDA-MB-231) | GI50 (SF-268) | GI50 (NCI/ADR-RES) | GI50 (SN12C) | GI50 (M14) | GI50 (Malme-3M) | GI50 (SNB-19) | GI50 (NCI-H460) | GI50 (A549) | GI50 (SW-620) | GI50 (PC-3) | GI50 (HCT-116) | GI50 (SR) | GI50 (RXF 393) | GI50 (HL-60) | GI50 (EKVX) | GI50 (K562) | GI50 (SF-539) | GI50 (UACC-62) |
| --- | --- | --- | --- | --- | --- | --- | --- | --- | --- | --- | --- | --- | --- | --- | --- | --- | --- | --- | --- | --- |
| CCOC(=O)CCC(NC(=O)C(N)Cc1ccc(N(CCCl)CCCl)cc1)C(=O)OCC (stereo not given) | 0.446 µM (active) | 1.69 µM (inactive) | 0.592 µM (active) | 1.33 µM (inactive) | 1.51 µM (inactive) | 0.225 µM (active) | 0.234 µM (active) | 4.09 µM (inactive) | 0.0406 µM (active) | 2.72 µM (inactive) | 1.29 µM (inactive) | 1.34 µM (inactive) | 0.375 µM (active) | < 0.0182 µM (active) | 0.515 µM (active) | 0.0665 µM (active) | 2.36 µM (inactive) | 0.446 µM (active) | 0.741 µM (active) | 0.34 µM (active) |
| CC(=O)Nc1c(C)cc2c(nc3n2CCC3OC(C)=O)c1[N+](=O)[O-] (stereo not given) | > 100 µM (inactive) | > 100 µM (inactive) | > 100 µM (inactive) | > 100 µM (inactive) | > 100 µM (inactive) | > 100 µM (inactive) | > 100 µM (inactive) | > 100 µM (inactive) | > 100 µM (inactive) | > 100 µM (inactive) | > 100 µM (inactive) | > 100 µM (inactive) | > 100 µM (inactive) | > 100 µM (inactive) | 7.98 µM (inactive) | > 100 µM (inactive) | > 100 µM (inactive) | > 100 µM (inactive) | > 100 µM (inactive) | > 100 µM (inactive) |
| O=C(NCCCc1cn[nH]c(=O)n1)c1cccc2nc3ccccc3nc12 | > 100 µM (inactive) | 27.8 µM (inactive) | 91.8 µM (inactive) | > 100 µM (inactive) | 86.3 µM (inactive) | > 100 µM (inactive) | 36.5 µM (inactive) | > 100 µM (inactive) | > 100 µM (inactive) | > 100 µM (inactive) | > 100 µM (inactive) | > 100 µM (inactive) | 42 µM (inactive) | 40.6 µM (inactive) | 41.5 µM (inactive) | > 100 µM (inactive) | > 100 µM (inactive) | > 100 µM (inactive) | > 100 µM (inactive) | > 100 µM (inactive) |
| O=[N+]([O-])/C=C/c1cn(CCCCCn2cc(/C=C/[N+](=O)[O-])c3ccccc32)c2ccccc12 | 8.22 µM (inactive) | 1.95 µM (inactive) | 2.18 µM (inactive) | 10.2 µM (inactive) | 3.16 µM (inactive) | 1.44 µM (inactive) | 3.54 µM (inactive) | 6.73 µM (inactive) | 1.79 µM (inactive) | 2.96 µM (inactive) | 0.682 µM (active) | 3.58 µM (inactive) | 0.283 µM (active) | 0.973 µM (active) | 0.582 µM (active) | 0.787 µM (active) | 11.6 µM (inactive) | 0.83 µM (active) | 1.88 µM (inactive) | 6.95 µM (inactive) |
| Cc1cc(=O)oc2cc(OC(=O)Nc3ccccc3)ccc12 | 41.9 µM (inactive) | > 100 µM (inactive) | > 100 µM (inactive) | 63.2 µM (inactive) | 74.6 µM (inactive) | > 100 µM (inactive) | > 100 µM (inactive) | > 100 µM (inactive) | 84.7 µM (inactive) | 62.1 µM (inactive) | 62.8 µM (inactive) | 48.8 µM (inactive) | 47.8 µM (inactive) | 29.5 µM (inactive) | 92.7 µM (inactive) | 20.6 µM (inactive) | > 100 µM (inactive) | 35.6 µM (inactive) | > 100 µM (inactive) | 41.2 µM (inactive) |
| O=C(Cc1ccccc1)NCCc1ccc(O)c(O)c1 | > 100 µM (inactive) | 37.2 µM (inactive) | 63.1 µM (inactive) | > 100 µM (inactive) | 95.9 µM (inactive) | > 100 µM (inactive) | > 100 µM (inactive) | > 100 µM (inactive) | > 100 µM (inactive) | > 100 µM (inactive) | > 100 µM (inactive) | > 100 µM (inactive) | > 100 µM (inactive) | 23.3 µM (inactive) | > 100 µM (inactive) | 13.8 µM (inactive) | > 100 µM (inactive) | 17.9 µM (inactive) | > 100 µM (inactive) | 48.9 µM (inactive) |
| CN1CC=C(c2c(N)nc(N)[nH]c2=O)CC1 | > 100 µM (inactive) | > 100 µM (inactive) | > 100 µM (inactive) | > 100 µM (inactive) | > 100 µM (inactive) | > 100 µM (inactive) | 80.2 µM (inactive) | > 100 µM (inactive) | > 100 µM (inactive) | > 100 µM (inactive) | > 100 µM (inactive) | > 100 µM (inactive) | > 100 µM (inactive) | > 100 µM (inactive) | > 100 µM (inactive) | > 100 µM (inactive) | > 100 µM (inactive) | > 100 µM (inactive) | > 100 µM (inactive) | > 100 µM (inactive) |
